Results reported in the NIST ThermoML archive (doi:10.1021/je300853z).

Experiments:
[1] = for mass density / viscosity: 101.33 kPa, Liquid; for mass density: Vibrating tube method
[2] = molar heat capacity at constant pressure; details: 101.33 kPa, Liquid, Small sample (50 mg) DSC

CCCCCCCC[n+]1ccc2ccccc2c1.N#C[S-] [2-octylisoquinolinium thiocyanate]
Details	mass density, [1] [kg/m3]	molar heat capacity at constant pressure, [2] [J/K/mol]	viscosity, [1] [mPa·s]
278.15 K	–	510	–
283.15 K	–	513	–
288.15 K	1067.27	516	–
293.15 K	1064.44	519	–
298.15 K	1061.69	522	2388
303.15 K	1058.82	525	1612.1
308.15 K	1055.96	528	1109.5
313.15 K	1053.11	531	743.87
318.15 K	1050.26	533	513.78
323.15 K	1047.42	535	365.48
328.15 K	1044.57	537	266.77
333.15 K	1041.72	538	199.26
338.15 K	1038.94	540	152.21
343.15 K	1036.2	540	118.51
348.15 K	1033.47	–	93.83

Details	Glass transition temperature [°C]
[1], Glass, DTA	-57.0
